Source: ChEMBL document CHEMBL1201862, “PubChem BioAssay data set” (2004)
Activity calls are given as the source filed them.

What was measured:
Steroidogenic factor 1 = Steroidogenic factor 1 (Homo sapiens, UniProt Q13285); experiment: Counterscreen for inverse agonists of the liver receptor homolog-1 (LRH-1; NR5A2): Luminescence-based cell-based high throughput dose response assay to identify inverse agonists of the Steroidogenic Factor 1 Nuclear Receptor (SF1; NR5A1).; assay type: functional
[1] = target: Nuclear receptor subfamily 5 group A member 2 (Homo sapiens, UniProt O00482); assay type: functional, cell-based;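 note: HEK293T cells transfected with LRH-1 and a StAR promoter luciferase reporter; potency for inhibitors that lower LRH-1 driven reporter light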
[2] = StAR promoter reporter inhibition counter-screen, dose response, counter-screen for LRH-1 inverse agonist project, cell-based, luminescence, luciferase reporter (AID 651969); assay type: functional
[3] = MC4R antagonists, dose response, counter-screen for LGR2 antagonist project, cell-based, plate reader, cherry pick (AID 743444); assay type: functional;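 note: transfected HEK 293 cells stimulated with alpha-MSH peptide; potency of inhibitors of the alpha-MSH evoked signal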
[4] = HepG2 cell cytotoxicity, dose response, cytotoxicity control, plate reader, cherry-pick, antagonist series (AID 743416); assay type: functional, cell-based
[5] = A549 cell cytotoxicity, dose response, cytotoxicity control, plate reader, cherry-pick, antagonist series (AID 743412); assay type: functional, cell-based
[6] = non-specific cell cytotoxicity, dose response, cytotoxicity control for PAX8 inhibitor project, plate reader, dry powder samples (AID 743021); assay type: functional, cell-based
[7] = NIH:OVCAR-3 ovarian cancer cell cytotoxicity, dose response, PAX8 inhibitor project, plate reader, dry powder samples (AID 743044); assay type: functional, cell-based
[8] = LGR2 antagonists, dose response, cell-based, HEK293, CRE-luciferase reporter, cherry pick, set 2 (AID 743343); assay type: functional;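 note: transfected cells were stimulated with diluted bursicon conditioned medium after compound addition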
[9] = HEK293 cell cytotoxicity, dose response, cytotoxicity control, plate reader, cherry-picked samples (AID 743446); assay type: functional, cell-based
Paired box protein Pax-8 = Paired box protein Pax-8 (Homo sapiens, UniProt Q06710); experiment: inhibitors of PAX8-driven TPO luciferase reporter, dose response, RMG-I cells, cherry-pick (AID 687027); assay type: functional, cell-based;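 note: luciferase reporter driven by Pax8 target thyroperoxidase promoter measured by SteadyGlo luminescence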
[10] = CRF-BP/CRF-R2 complex antagonists, dose response, cell-based, uHTS hits, 384-well (AID 651639); assay type: functional, Homo sapiens; details: read-out: IC50_Mean
[11] = target: T1, Corticotropin-releasing factor receptor 2/Corticotropin-releasing factor-binding protein (Homo sapiens, UniProt P24387+Q13324); experiment: activators of CRF receptor 2 with binding protein – uHTS hits, confirmation (AID 602473); assay type: functional; details: read-out: EC50_Mean
T1 sequence (Q13324 whole entry): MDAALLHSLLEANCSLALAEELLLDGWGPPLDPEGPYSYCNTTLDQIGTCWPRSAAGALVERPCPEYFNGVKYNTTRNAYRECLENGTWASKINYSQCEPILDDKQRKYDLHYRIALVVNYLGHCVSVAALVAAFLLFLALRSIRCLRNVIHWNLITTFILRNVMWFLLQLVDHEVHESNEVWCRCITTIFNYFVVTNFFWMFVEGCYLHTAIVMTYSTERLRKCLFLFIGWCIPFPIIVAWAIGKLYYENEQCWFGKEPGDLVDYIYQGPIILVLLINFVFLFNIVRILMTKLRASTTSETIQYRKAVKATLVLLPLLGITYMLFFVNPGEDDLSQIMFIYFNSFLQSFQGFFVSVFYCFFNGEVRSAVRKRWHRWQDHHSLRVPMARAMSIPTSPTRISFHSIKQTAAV
T1 sequence (P24387 whole entry): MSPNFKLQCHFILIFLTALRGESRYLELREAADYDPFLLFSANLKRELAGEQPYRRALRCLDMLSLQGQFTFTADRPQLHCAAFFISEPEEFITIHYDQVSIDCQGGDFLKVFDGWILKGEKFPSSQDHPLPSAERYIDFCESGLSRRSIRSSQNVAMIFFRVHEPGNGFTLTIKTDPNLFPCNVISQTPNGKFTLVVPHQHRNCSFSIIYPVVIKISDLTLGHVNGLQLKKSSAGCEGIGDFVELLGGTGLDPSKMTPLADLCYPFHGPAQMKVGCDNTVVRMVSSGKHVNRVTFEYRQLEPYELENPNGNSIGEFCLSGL

[12] = target: T1, Corticotropin-releasing factor receptor 2/Corticotropin-releasing factor-binding protein; experiment: Dose Response confirmation of uHTS hits for small molecule antagonists of the CRF-binding protein and CRF-R2 receptor complex.; assay type: functional; details: read-out: IC50_Mean
H4 = experiment: Luminescence Cell-Based Dose Response HTS to Identify Activators of 5'UTR Stem-Loop Driven Prion Protein mRNA Translation in H4 Neuroglioblastoma Cells. [Related pubchem assays: 1829 (Project Summary), 1814 (Primary HTS)]; assay type: functional; details: Homo sapiens
[13] = Luminescence Cell-Based Dose Response HTS to Identify Activators of Luciferase Translation or Activity in H4 […] Cells. [Related pubchem assays: 1829 (Project Summary), 1814 (Primary HTS)]; assay type: functional
Cytochrome P450 1A2 = target: T2, Cytochrome P450 1A2 (Homo sapiens, UniProt P05177);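 note: PubChem cytochrome P450 panel assay, CYP1A2 panel member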
T2 sequence (P05177 whole entry): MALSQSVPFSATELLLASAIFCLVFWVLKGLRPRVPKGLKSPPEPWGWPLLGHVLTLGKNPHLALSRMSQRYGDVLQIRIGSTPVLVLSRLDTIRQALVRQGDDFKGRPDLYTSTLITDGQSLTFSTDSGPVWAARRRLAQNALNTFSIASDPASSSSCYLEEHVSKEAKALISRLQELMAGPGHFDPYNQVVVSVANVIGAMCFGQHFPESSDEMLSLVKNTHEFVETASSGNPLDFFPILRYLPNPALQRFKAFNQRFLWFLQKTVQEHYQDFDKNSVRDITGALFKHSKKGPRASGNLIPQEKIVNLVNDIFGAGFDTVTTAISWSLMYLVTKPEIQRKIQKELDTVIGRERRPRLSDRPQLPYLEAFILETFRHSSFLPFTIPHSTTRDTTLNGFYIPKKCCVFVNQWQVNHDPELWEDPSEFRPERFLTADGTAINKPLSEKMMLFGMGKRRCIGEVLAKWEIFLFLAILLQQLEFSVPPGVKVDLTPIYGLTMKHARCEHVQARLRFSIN

fMet-Leu-Phe receptor = target: T3, fMet-Leu-Phe receptor (Homo sapiens, UniProt P21462); experiment: FPR ligands, dose response (AID 519); assay type: functional
T3 sequence (P21462 whole entry): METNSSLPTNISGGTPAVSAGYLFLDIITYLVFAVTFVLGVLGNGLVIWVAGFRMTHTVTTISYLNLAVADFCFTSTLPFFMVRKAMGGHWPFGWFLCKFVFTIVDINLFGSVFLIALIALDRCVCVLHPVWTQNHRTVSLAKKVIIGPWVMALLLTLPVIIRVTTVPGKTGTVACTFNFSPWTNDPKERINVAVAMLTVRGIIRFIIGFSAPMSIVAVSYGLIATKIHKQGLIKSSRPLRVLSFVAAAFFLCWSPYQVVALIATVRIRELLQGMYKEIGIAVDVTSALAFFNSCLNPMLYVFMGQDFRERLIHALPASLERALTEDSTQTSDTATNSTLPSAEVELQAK

Cytochrome P450 3A4 = Cytochrome P450 3A4 (Homo sapiens, UniProt P08684);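 note: CYP3A4 tested as one member of a cytochrome P450 panel screen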
[14] = IGROV1 ovarian cancer cell cytotoxicity, dose response, PAX8 inhibitor project, plate reader, dry powder samples (AID 743043); assay type: functional, cell-based; details: IGROV-1
[15] = target: Disintegrin and metalloproteinase domain-containing protein 17 (Homo sapiens, UniProt P78536); experiment: ADAM17 protease inhibitors, dose response, counter-screen for ADAM10 exosite inhibitor project, biochemical, quenched FRET substrate (AID 743253)
[16] = ADAM10 inhibitors, peptide cleavage, dose response, biochemical, QFRET (AID 743254);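 note: ADAM10 enzyme with the DM2 quenched FRET peptide as substrate; EDANS fluorescence gain as the protease cuts the substrate; inhibitor potency against ADAM10 proteolytic activity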
[17] = target: T4, DNA repair protein RAD52 homolog (Homo sapiens, UniProt P43351); assay type: functional, biochemical
T4 sequence (P43351 whole entry): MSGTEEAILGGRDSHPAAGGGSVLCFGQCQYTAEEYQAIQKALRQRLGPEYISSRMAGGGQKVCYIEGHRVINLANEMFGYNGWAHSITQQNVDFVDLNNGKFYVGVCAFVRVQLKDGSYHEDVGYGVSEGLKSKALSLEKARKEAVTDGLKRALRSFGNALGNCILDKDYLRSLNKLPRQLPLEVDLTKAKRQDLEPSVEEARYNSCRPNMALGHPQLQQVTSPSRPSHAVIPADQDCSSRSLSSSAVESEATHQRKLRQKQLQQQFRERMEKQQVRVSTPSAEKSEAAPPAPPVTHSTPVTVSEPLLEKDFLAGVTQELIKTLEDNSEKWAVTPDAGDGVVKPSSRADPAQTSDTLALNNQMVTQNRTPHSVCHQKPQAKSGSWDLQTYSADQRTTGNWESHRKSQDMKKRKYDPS

[18] = target: T5, Rac GTPase-activating protein 1 (Homo sapiens, UniProt Q9H0H5); experiment: MgcRacGAP GTPase-activating activity inhibitors, confirmation, biochemical, ADP Hunter fluorescence, primary and confirmatory (AID 624330); assay type: functional
T5 sequence (Q9H0H5 whole entry): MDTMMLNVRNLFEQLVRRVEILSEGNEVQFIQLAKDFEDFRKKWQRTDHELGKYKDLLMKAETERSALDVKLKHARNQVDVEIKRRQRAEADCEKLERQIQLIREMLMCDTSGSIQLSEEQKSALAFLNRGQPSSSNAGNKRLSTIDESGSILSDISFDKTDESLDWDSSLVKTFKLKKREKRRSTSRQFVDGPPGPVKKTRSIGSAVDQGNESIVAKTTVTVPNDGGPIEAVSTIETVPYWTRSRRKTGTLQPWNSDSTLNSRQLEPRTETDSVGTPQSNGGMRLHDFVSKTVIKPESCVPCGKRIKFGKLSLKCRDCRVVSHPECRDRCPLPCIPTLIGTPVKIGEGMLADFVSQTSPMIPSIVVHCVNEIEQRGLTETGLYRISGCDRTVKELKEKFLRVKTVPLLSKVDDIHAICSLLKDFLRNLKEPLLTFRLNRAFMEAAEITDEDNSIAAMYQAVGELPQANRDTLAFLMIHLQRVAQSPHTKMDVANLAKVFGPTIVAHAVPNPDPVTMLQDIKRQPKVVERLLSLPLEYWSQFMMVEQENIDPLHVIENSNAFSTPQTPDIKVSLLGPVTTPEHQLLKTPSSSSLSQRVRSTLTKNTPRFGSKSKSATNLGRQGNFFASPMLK

Chain of Paired box protein Pax-8 (Q06710 whole entry): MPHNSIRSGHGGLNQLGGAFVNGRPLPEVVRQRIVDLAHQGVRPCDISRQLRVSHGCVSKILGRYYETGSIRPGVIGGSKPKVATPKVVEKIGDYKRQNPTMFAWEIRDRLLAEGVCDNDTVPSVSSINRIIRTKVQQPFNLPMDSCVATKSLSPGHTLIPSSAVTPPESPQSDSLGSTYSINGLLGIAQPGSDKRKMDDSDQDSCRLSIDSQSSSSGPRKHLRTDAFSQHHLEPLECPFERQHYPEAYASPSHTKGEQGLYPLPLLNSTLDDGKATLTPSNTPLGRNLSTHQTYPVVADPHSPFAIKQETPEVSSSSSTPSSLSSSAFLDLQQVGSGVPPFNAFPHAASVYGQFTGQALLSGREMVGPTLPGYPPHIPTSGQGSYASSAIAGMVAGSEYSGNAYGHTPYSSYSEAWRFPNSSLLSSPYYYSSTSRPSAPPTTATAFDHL
Chain of Nuclear receptor subfamily 5 group A member 2 (O00482 whole entry): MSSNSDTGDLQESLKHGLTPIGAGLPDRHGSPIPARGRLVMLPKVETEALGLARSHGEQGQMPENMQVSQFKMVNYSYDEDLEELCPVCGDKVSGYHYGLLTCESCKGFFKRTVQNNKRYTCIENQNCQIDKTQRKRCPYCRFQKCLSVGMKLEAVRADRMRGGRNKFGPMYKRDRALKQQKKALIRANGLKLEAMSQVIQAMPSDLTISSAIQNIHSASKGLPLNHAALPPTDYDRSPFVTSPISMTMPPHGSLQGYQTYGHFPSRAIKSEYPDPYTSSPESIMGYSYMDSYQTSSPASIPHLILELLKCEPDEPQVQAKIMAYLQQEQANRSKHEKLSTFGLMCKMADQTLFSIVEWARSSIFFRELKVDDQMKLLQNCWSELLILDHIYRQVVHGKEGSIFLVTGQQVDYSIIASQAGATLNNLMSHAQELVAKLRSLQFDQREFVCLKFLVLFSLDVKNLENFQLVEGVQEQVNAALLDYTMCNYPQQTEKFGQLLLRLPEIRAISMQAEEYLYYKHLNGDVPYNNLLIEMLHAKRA
Chain of Steroidogenic factor 1 (Q13285 whole entry): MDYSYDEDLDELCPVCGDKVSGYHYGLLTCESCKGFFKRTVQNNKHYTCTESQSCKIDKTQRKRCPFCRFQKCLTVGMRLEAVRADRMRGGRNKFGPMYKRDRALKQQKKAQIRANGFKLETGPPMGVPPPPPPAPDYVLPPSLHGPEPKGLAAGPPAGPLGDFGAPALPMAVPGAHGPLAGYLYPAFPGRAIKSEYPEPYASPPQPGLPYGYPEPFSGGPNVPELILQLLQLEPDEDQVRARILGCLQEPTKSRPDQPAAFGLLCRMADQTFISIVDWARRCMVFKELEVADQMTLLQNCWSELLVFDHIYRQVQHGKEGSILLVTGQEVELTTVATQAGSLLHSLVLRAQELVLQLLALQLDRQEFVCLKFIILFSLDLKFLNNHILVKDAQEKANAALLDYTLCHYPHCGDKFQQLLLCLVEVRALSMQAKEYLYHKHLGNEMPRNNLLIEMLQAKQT
Chain of Disintegrin and metalloproteinase domain-containing protein 17 (P78536 whole entry, the tested form may be a part): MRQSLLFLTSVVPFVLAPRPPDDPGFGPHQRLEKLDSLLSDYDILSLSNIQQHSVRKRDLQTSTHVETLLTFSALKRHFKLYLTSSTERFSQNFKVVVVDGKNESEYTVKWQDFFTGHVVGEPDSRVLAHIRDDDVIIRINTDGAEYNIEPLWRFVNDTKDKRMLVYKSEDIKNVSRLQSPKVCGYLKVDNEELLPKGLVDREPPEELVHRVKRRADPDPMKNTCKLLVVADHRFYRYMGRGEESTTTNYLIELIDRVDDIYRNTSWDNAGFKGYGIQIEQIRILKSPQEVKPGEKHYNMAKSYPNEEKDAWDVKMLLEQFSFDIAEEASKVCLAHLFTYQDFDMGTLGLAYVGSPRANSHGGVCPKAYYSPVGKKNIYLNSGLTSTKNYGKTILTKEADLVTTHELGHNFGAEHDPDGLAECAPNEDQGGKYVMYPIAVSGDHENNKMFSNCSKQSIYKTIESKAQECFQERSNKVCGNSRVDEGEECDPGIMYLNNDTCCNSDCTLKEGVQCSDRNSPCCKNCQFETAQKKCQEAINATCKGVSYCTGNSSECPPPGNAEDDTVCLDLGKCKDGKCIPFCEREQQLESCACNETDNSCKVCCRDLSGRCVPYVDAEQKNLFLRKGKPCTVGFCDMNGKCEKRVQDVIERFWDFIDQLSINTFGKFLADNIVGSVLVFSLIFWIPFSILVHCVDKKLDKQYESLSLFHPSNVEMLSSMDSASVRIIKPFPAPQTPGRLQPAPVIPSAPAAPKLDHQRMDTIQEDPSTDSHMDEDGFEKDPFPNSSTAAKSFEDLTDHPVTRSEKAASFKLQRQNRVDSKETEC
Chain of Cytochrome P450 3A4 (P08684 whole entry): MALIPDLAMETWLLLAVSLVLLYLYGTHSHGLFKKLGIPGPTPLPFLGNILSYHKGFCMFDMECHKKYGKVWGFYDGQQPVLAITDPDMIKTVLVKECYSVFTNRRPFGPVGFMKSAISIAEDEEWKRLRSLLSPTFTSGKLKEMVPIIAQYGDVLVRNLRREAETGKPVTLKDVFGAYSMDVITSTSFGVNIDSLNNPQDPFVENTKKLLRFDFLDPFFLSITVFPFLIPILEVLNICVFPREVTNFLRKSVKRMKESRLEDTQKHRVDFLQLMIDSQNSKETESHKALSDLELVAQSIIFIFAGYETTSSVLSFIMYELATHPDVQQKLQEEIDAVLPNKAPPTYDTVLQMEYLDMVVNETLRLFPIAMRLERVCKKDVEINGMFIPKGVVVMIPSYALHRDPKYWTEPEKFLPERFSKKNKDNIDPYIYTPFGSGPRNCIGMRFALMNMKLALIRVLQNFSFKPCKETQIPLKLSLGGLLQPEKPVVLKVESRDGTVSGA

With `CCOc1ccc(NC(=O)CSc2nncc(O)n2)cc1` the IC50 (Steroidogenic factor 1) was 0.178 µM (active), the IC50 [1] was 0.594 µM (active) and the IC50 [2] was 35.9 µM (inactive).
In the case of `N#C[C@H]1[C@H](c2ccc(C#Cc3ccccc3F)cc2)[C@H](CO)N1C(=O)C1CCC1`, the AC50 [3] is reported as 14.7 µM (active), the AC50 [4] is reported as 32.2 µM (active) and the AC50 [5] is reported as 29.7 µM (active). The AC50 [6] was 21.9 µM (active), the AC50 [7] was 23.8 µM (active) and the AC50 [8] was 11.4 µM (active). The AC50 [9] was 17.9 µM (active) and the AC50 (Paired box protein Pax-8) was 11.1 µM (active).
In the case of `Cc1[nH]c2nc(SCC(=O)c3cccc([N+](=O)[O-])c3)nc-2cc1Br`, the IC50 [10] is reported as 6.28 µM (active), the EC50 [11] is reported as > 53 µM (inactive) and the IC50 [12] is reported as < 0.368 µM (active).
With `Cc1no[n+]([O-])c1COc1ccccc1/C=N/n1nnnc1N` the IC50 (Steroidogenic factor 1) was 35.9 µM (inactive), the IC50 [1] was 35.9 µM (inactive) and the IC50 [2] was 35.9 µM (inactive). For the same compound, the EC50 (H4) was 98.6 µM (active) and the EC50 [13] was 7.52 µM (active).
With `O=C(C1=C(O)C(=O)N(Cc2ccco2)C1c1ccccc1)c1cccs1` (stereo not given) the AC50 (Cytochrome P450 1A2) was 25.1 µM (inconclusive), the Ki (fMet-Leu-Phe receptor) was 35.2 µM (inactive) and the AC50 (Cytochrome P450 3A4) was 14.1 µM (inconclusive).
In the case of `Cc1csc(NC(=O)CCn2c(=O)oc3ccccc32)n1`, the Ki (fMet-Leu-Phe receptor) is reported as > 66.7 µM (inactive).
In the case of `C[C@@H]1CCCCO[C@@H](CN(C)Cc2ccc(Cl)c(Cl)c2)[C@@H](C)CN([C@@H](C)CO)C(=O)c2cc(NC(=O)Nc3ccccc3)ccc2O1`, the AC50 [14] is reported as 49.2 µM (active), the AC50 [7] is reported as 30.2 µM (active) and the AC50 (Paired box protein Pax-8) is reported as 4.6 µM (active).
In the case of `C=CCC[C@@H](Cc1ccc(F)cc1)C(=O)OC[C@H](Cc1c[nH]c2ccccc12)NC(=O)[C@H](CC=C)CC(=O)N(CCO)Cc1ccccc1`, the IC50 [15] is reported as > 69.5 µM (inactive) and the IC50 [16] is reported as 5.38 µM (active).
In the case of `CCCCN(CC)CCNC(=O)CCC(=O)Nc1ccc2nc(N3CCN(C)CC3)cc(C)c2c1`, the AC50 [17] is reported as 3.22 µM (active) and the IC50 [18] is reported as 164 µM (active).
